# Data as given in patent publication US10183022B2, “Pharmaceutical composition for treating ulcerative colitis” (EA Pharma Co., Ltd., priority 2014, dated 2019).
# Key:
# [1] = system: ulcerative colitis patients in an active stage; assay: Clinical study, 960 mg orally 3 times a day for 8 weeks: subscore for stool frequency of Mayo score; assay type: in vivo, human
# Procedure: (§1) The compound of Example 1 or the compound of Comparative Example 1 was orally administered after meals 3 times a day. The number of the given tablets was 8 per administration (i.e., the amount of the compound (1) of Example 1 administered was 960 mg per administration). The administration period was 8 weeks. The compounds were administered until the timing after the breakfast on the day before the assessment day at Week 8.
# [Investigation Timings: Weeks 0, 2, 4, and 8 (or Discontinuation Time)]
# Based on the contents described in the symptom-recording diaries and so on, the investigators or sub-investigators investigated stool frequencies in 3 days immediately before each assessment day. Note that when the endoscopic examination on the large intestine was conducted, the investigation days were set to be the closest three days excluding the day of the endoscopic examination on the large intestine, the following day, and if a pre-treatment was performed for the endoscopic examination on the large intestine, the pre-treatment day.
# The investigators or sub-investigators investigated the stool frequency per day before the primary disease appeared, which served as a “normal frequency.” An average value (rounded to the nearest whole number) of the stool frequencies of the investigated three days was compared with the “normal frequency,” and scored according to the following criteria.
# [2] = system: ulcerative colitis patients in an active stage; assay: Clinical study, 960 mg orally 3 times a day for 8 weeks: subscore for physician's global assessment of Mayo score; assay type: in vivo, human
# Procedure: as §1
# (4) Physician's Global Assessment [Investigation Timings: Weeks 0, 2, 4, and 8 (or Discontinuation Time)]
# The investigators or sub-investigators conducted a medical interview with the subjects (for abdominal discomfort, systemic state, investigator's finding, subject's impression, and so forth), and investigated the state on each assessment day.
# The investigators or sub-investigators scored the physician's global assessment according to the following criteria with reference to the other three assessment criteria (stool frequency, bloody stool, and mucosal finding), as well as the abdominal discomfort, systemic state, investigator's finding, subject's impression, and so forth. Note that, on the days of the assessment performed without an endoscope, no mucosal finding was considered in scoring the physician's global assessment.
smiles,measurement,setting,value
"COC(=O)[C@H](Cc1ccc(-n2c(=O)c3cc(N(C)C)ccc3n(C)c2=O)cc1)NC(=O)c1c(Cl)cccc1Cl [Example 1, methyl(2S)-2-(2,6-dichlorobenzamide)-3-{4-[6-(dimethylamino)-1-methyl-2,4-dioxo-1,4-dihydroquinazolin-3(2H)-yl]phenyl}propanoate]","Number of cases, cross tabulation of subscore for stool frequency","[1]; Week 8 score 0, Week 0 score 0",2
same,"Number of cases, cross tabulation of subscore for stool frequency","[1]; Week 8 score 0, Week 0 score 1",3
same,"Number of cases, cross tabulation of subscore for stool frequency","[1]; Week 8 score 0, Week 0 score 2",4
same,"Number of cases, cross tabulation of subscore for stool frequency","[1]; Week 8 score 0, Week 0 score 3",2
same,"Number of cases, cross tabulation of subscore for stool frequency","[1]; Week 8 score 1, Week 0 score 0",0
same,"Number of cases, cross tabulation of subscore for stool frequency","[1]; Week 8 score 1, Week 0 score 1",5
same,"Number of cases, cross tabulation of subscore for stool frequency","[1]; Week 8 score 1, Week 0 score 2",11
same,"Number of cases, cross tabulation of subscore for stool frequency","[1]; Week 8 score 1, Week 0 score 3",7
same,"Number of cases, cross tabulation of subscore for stool frequency","[1]; Week 8 score 2, Week 0 score 0",0
same,"Number of cases, cross tabulation of subscore for stool frequency","[1]; Week 8 score 2, Week 0 score 1",1
same,"Number of cases, cross tabulation of subscore for stool frequency","[1]; Week 8 score 2, Week 0 score 2",5
same,"Number of cases, cross tabulation of subscore for stool frequency","[1]; Week 8 score 2, Week 0 score 3",3
same,"Number of cases, cross tabulation of subscore for stool frequency","[1]; Week 8 score 3, Week 0 score 0",0
same,"Number of cases, cross tabulation of subscore for stool frequency","[1]; Week 8 score 3, Week 0 score 1",0
same,"Number of cases, cross tabulation of subscore for stool frequency","[1]; Week 8 score 3, Week 0 score 2",1
same,"Number of cases, cross tabulation of subscore for stool frequency","[1]; Week 8 score 3, Week 0 score 3",7
same,"Number of cases, cross tabulation of subscore for physician's global assessment","[2]; Week 2 score 0, Week 0 score 0",0
same,"Number of cases, cross tabulation of subscore for physician's global assessment","[2]; Week 2 score 0, Week 0 score 1",0
same,"Number of cases, cross tabulation of subscore for physician's global assessment","[2]; Week 2 score 0, Week 0 score 2",3
same,"Number of cases, cross tabulation of subscore for physician's global assessment","[2]; Week 2 score 0, Week 0 score 3",0
same,"Number of cases, cross tabulation of subscore for physician's global assessment","[2]; Week 2 score 1, Week 0 score 0",0
same,"Number of cases, cross tabulation of subscore for physician's global assessment","[2]; Week 2 score 1, Week 0 score 1",3
same,"Number of cases, cross tabulation of subscore for physician's global assessment","[2]; Week 2 score 1, Week 0 score 2",19
same,"Number of cases, cross tabulation of subscore for physician's global assessment","[2]; Week 2 score 1, Week 0 score 3",0
same,"Number of cases, cross tabulation of subscore for physician's global assessment","[2]; Week 2 score 2, Week 0 score 0",0
same,"Number of cases, cross tabulation of subscore for physician's global assessment","[2]; Week 2 score 2, Week 0 score 1",0
same,"Number of cases, cross tabulation of subscore for physician's global assessment","[2]; Week 2 score 2, Week 0 score 2",26
same,"Number of cases, cross tabulation of subscore for physician's global assessment","[2]; Week 2 score 2, Week 0 score 3",0
same,"Number of cases, cross tabulation of subscore for physician's global assessment","[2]; Week 2 score 3, Week 0 score 0",0
same,"Number of cases, cross tabulation of subscore for physician's global assessment","[2]; Week 2 score 3, Week 0 score 1",0
same,"Number of cases, cross tabulation of subscore for physician's global assessment","[2]; Week 2 score 3, Week 0 score 2",0
same,"Number of cases, cross tabulation of subscore for physician's global assessment","[2]; Week 2 score 3, Week 0 score 3",0
same,"Number of cases, cross tabulation of subscore for physician's global assessment","[2]; Week 4 score 0, Week 0 score 0",0
same,"Number of cases, cross tabulation of subscore for physician's global assessment","[2]; Week 4 score 0, Week 0 score 1",0
same,"Number of cases, cross tabulation of subscore for physician's global assessment","[2]; Week 4 score 0, Week 0 score 2",7
same,"Number of cases, cross tabulation of subscore for physician's global assessment","[2]; Week 4 score 0, Week 0 score 3",0
same,"Number of cases, cross tabulation of subscore for physician's global assessment","[2]; Week 4 score 1, Week 0 score 0",0
same,"Number of cases, cross tabulation of subscore for physician's global assessment","[2]; Week 4 score 1, Week 0 score 1",3
same,"Number of cases, cross tabulation of subscore for physician's global assessment","[2]; Week 4 score 1, Week 0 score 2",23
same,"Number of cases, cross tabulation of subscore for physician's global assessment","[2]; Week 4 score 1, Week 0 score 3",0
same,"Number of cases, cross tabulation of subscore for physician's global assessment","[2]; Week 4 score 2, Week 0 score 0",0
same,"Number of cases, cross tabulation of subscore for physician's global assessment","[2]; Week 4 score 2, Week 0 score 1",0
same,"Number of cases, cross tabulation of subscore for physician's global assessment","[2]; Week 4 score 2, Week 0 score 2",18
same,"Number of cases, cross tabulation of subscore for physician's global assessment","[2]; Week 4 score 2, Week 0 score 3",0
same,"Number of cases, cross tabulation of subscore for physician's global assessment","[2]; Week 4 score 3, Week 0 score 0",0
same,"Number of cases, cross tabulation of subscore for physician's global assessment","[2]; Week 4 score 3, Week 0 score 1",0
same,"Number of cases, cross tabulation of subscore for physician's global assessment","[2]; Week 4 score 3, Week 0 score 2",0
same,"Number of cases, cross tabulation of subscore for physician's global assessment","[2]; Week 4 score 3, Week 0 score 3",0
same,"Number of cases, cross tabulation of subscore for physician's global assessment","[2]; Week 8 score 0, Week 0 score 0",0
same,"Number of cases, cross tabulation of subscore for physician's global assessment","[2]; Week 8 score 0, Week 0 score 1",1
same,"Number of cases, cross tabulation of subscore for physician's global assessment","[2]; Week 8 score 0, Week 0 score 2",6
same,"Number of cases, cross tabulation of subscore for physician's global assessment","[2]; Week 8 score 0, Week 0 score 3",0
same,"Number of cases, cross tabulation of subscore for physician's global assessment","[2]; Week 8 score 1, Week 0 score 0",0
same,"Number of cases, cross tabulation of subscore for physician's global assessment","[2]; Week 8 score 1, Week 0 score 1",2
same,"Number of cases, cross tabulation of subscore for physician's global assessment","[2]; Week 8 score 1, Week 0 score 2",28
same,"Number of cases, cross tabulation of subscore for physician's global assessment","[2]; Week 8 score 1, Week 0 score 3",0
same,"Number of cases, cross tabulation of subscore for physician's global assessment","[2]; Week 8 score 2, Week 0 score 0",0
same,"Number of cases, cross tabulation of subscore for physician's global assessment","[2]; Week 8 score 2, Week 0 score 1",0
same,"Number of cases, cross tabulation of subscore for physician's global assessment","[2]; Week 8 score 2, Week 0 score 2",14
same,"Number of cases, cross tabulation of subscore for physician's global assessment","[2]; Week 8 score 2, Week 0 score 3",0
same,"Number of cases, cross tabulation of subscore for physician's global assessment","[2]; Week 8 score 3, Week 0 score 0",0
same,"Number of cases, cross tabulation of subscore for physician's global assessment","[2]; Week 8 score 3, Week 0 score 1",0
same,"Number of cases, cross tabulation of subscore for physician's global assessment","[2]; Week 8 score 3, Week 0 score 2",0
same,"Number of cases, cross tabulation of subscore for physician's global assessment","[2]; Week 8 score 3, Week 0 score 3",0
